Measured values from publication PMC4657098, “A Review of the Updated Pharmacophore for the Alpha 5 GABA(A) Benzodiazepine Receptor Model” (International Journal of Medicinal Chemistry, 2015).

Legend:
α6β3γ2 GABAA/BzR = α6β3γ2 GABAA/BzR (Homo sapiens, UniProt P18507+Q16445); assay: Competition binding to HEK cell membranes, α6β3γ2; parameters: expressed in transfected cells; settings: read-out: Ki α6
α5β3γ2 GABAA/BzR = α5β3γ2 GABAA/BzR (Homo sapiens, UniProt P18507+P31644); assay: Competition binding to HEK cell membranes, α5β3γ2; parameters: expressed in transfected cells; settings: read-out: Ki α5
α1β3γ2 GABAA/BzR = α1β3γ2 GABAA/BzR (Homo sapiens, UniProt P14867+P18507); assay: Competition binding to HEK cell membranes, α1β3γ2; parameters: expressed in transfected cells; settings: read-out: Ki α1
α4β3γ2 GABAA/BzR = target: T1, α4β3γ2 GABAA/BzR (Homo sapiens, UniProt P18507+P48169); assay: biochemical; format: binding; settings: read-out: Ki α4
T1 construct: expressed in transfected cells; host or cells: LTK cells (given for XLi-093 only)

α3β3γ2 GABAA/BzR = α3β3γ2 GABAA/BzR (Homo sapiens, UniProt P18507+P34903); assay: Competition binding to HEK cell membranes, α3β3γ2; parameters: expressed in transfected cells; settings: read-out: Ki α3
α2β3γ2 GABAA/BzR = α2β3γ2 GABAA/BzR (Homo sapiens, UniProt P18507+P47869); assay: Competition binding to HEK cell membranes, α2β3γ2; parameters: expressed in transfected cells; settings: read-out: Ki α2

Structure (SMILES)	Ki (α6β3γ2 GABAA/BzR)	Ki (α5β3γ2 GABAA/BzR)	Ki (α1β3γ2 GABAA/BzR)	Ki (α4β3γ2 GABAA/BzR)	Ki (α3β3γ2 GABAA/BzR)	Ki (α2β3γ2 GABAA/BzR)
CCC(OC(=O)c1ncn2c1C1CCCN1C(=O)c1cc(Br)ccc1-2)C(F)(F)F (mixture of isomers) [CM-B34]	175 nM	17 nM	472 nM	114 nM	223 nM	451 nM
CCC(OC(=O)c1ncn2c1C1CCCN1C(=O)c1cc(Cl)ccc1-2)C(F)(F)F (mixture of isomers) [CM-B45]	230 nM	15 nM	230 nM	265 nM	336 nM	557 nM
CCC(OC(=O)c1ncn2c1C1CCCN1C(=O)c1cc(F)ccc1-2)C(F)(F)F (mixture of isomers) [CM-B47]	717 nM	4.4 nM	32 nM	2010 nM	34 nM	63 nM
CC(C)(C)CC(=O)c1cc2c(cn1)[nH]c1ccccc12 [CM-A77]	1000 nM	42.6 nM	11.5 nM	1000 nM	105 nM	51.9 nM
CC(C)(C)OC(=O)c1cc2c(cn1)[nH]c1ccc(I)cc12 [CM-A100]	1000 nM	65.3 nM	14.5 nM	1000 nM	124 nM	44.9 nM
CCOC(=O)c1cc2c(cn1)[nH]c1ccc(I)cc12 [CM-B01]	1000 nM	286 nM	4.8 nM	1000 nM	34 nM	31 nM
CC[C@H](C)OC(=O)c1ncn2c1[C@@H]1CCCN1C(=O)c1cc(I)ccc1-2 [CM-B31i (ss)]		4.9 nM	90 nM	18 nM	78 nM	184 nM
CC[C@H](C)OC(=O)c1ncn2c1[C@@H]1CCCN1C(=O)c1cc(F)ccc1-2 [CM-B44 (ss)]	485 nM	4.3 nM	32 nM	379 nM	12 nM	43 nM
CCC(C)OC(=O)c1ncn2c1C1CCCN1C(=O)c1cc(F)ccc1-2 (centres unmarked) [CM-B44]	485 nM	4.3 nM	32 nM	379 nM	12 nM	43 nM
CCOC(=O)c1ncn2c1C1CCN1C(=O)c1cc(OC)ccc1-2 (centres unmarked) [CM-D44]	0.92 nM	0.57 nM	34.3 nM	0.33 nM	20.7 nM	56.3 nM
COc1ccc2c(c1)C(=O)N1CCC1c1c(C(=O)OC(C)(C)C)ncn1-2 (centres unmarked) [CM-D45 C19H21N3O4]	0.23 nM	1.65 nM	90.5 nM	0.15 nM	30.3 nM	65.5 nM
COc1ccc2c(c1)C(=O)N1CC[C@H]1c1c(C(=O)OC(C)(C)C)ncn1-2 [CM-D45]	0.23 nM	1.65 nM	90.5 nM	0.15 nM	30.3 nM	65.5 nM
COc1ccc2c(c1)C(=O)N1CCC[C@H]1c1c(C(=O)OCC(F)(F)F)ncn1-2 [CM-E09a]	718 nM	9.2 nM	176 nM	490 nM	122 nM	192 nM
COc1ccc2c(c1)C(=O)N1CCCC1c1c(C(=O)OC(C)C)ncn1-2 (centres unmarked) [CM-E09b]	69 nM	0.45 nM	20 nM	55 nM	19 nM	22 nM
C#Cc1ccc2c(c1)C(c1ccccc1)=NCc1c(C(=O)OCC(F)(F)F)ncn1-2 [DM-II-20]	5000 nM	15.3 nM	54.3 nM		35.7 nM	27.1 nM
O=C(OCC(F)(F)F)c1ncn2c1CN=C(c1ccccc1)c1ccccc1-2 [DM-II-30]	5000 nM	7.8 nM	17.6 nM		28.5 nM	13.4 nM
O=C(OCC(Cl)(Cl)Cl)c1ncn2c1CN=C(c1ccccc1)c1cc(Br)ccc1-2 [DM-II-33 (C20H13N3O2BrCl3)]	5000 nM	26.2 nM	88.6 nM		11.6 nM	85 nM
Cc1nnc2n1-c1ccc(Br)cc1C(c1ccccc1Cl)=NC2 [DM-II-90]	5000 nM	0.37 nM	0.505 nM		0.63 nM	1 nM
CC(C)c1nc(-c2ncn3c2CN(C)C(=O)c2c(Cl)cccc2-3)no1 [FG8205, reference compound]	227 nM	1.54 nM	0.4 nM		1.16 nM	2.08 nM
C#Cc1ccc2c(c1)C(c1cccs1)=NCc1c(C(=O)OCC)ncn1-2 [JC221]	362 nM	7.75 nM	106 nM		182 nM	49.4 nM
